Test results reported in patent US12606813B2, “Compositions and methods for enzyme immobilization” (priority 2017, dated 2026).

Key:
Type in all cases: biochemical
[1] = system: AIDA-lipase (pAIDA-lipase): Bacillus sp. 42 thermostable organic solvent tolerant lipase (encoding nucleic acid SEQ ID NO: 15) fused to AIDA-1 autotransporter …; experiment: Lipase activity, continuous spectrophotometric rate determination at 400 nm, Michaelis-Menten fit, AIDA-lipase on minicell surface; details: 4-nitrophenyl-butyrate 0-5 mM, 37° C., pH 7.2; Cells/Well: 99,946,667; best-fit value
Description: (§1) Kinetic analysis of the reaction was analyzed by continuous spectrophotometric rate determination at 400 nm.
This construction was conducted with primarily designed pAIDA-1 plasmid (from Addgene, Cambridge, MA) in which the lipase-encoding gene was ligated into the passenger domain within the AIDA-I autotransporter using KpnI and SacI sites as illustrated in FIG. 4A. The tags existed on the pAIDA-1 plasmid prior were used for further analysis on lipase expression. After the ligation is completed, the 6× His tag and HRV3C site are located at N-terminus of the lipase-encoding gene and the Myc tag and TEV site are placed at C-terminus of the lipase-encoding gene. The 6× His tag, which is the 5′ end of the surface-expressed fusion lipase protein was used for Cobalt immobilized metal affinity chromatography (IMAC) and for immunofluorescent staining with THE His Tag antibody [FITC] from Genscript. […]
In order to further confirm presence of the functional lipase-fusion protein in both the elution fraction from the protein purification and the surface of the cell, a lipase activity assay was designed using the lipase substrate, 4-nitrophenyl-butyrate. […] The pathlength, 0.625 cm, was calculated from the known volume of the well (200 uL) and the well's surface area (0.32 cm^2). […]

[2] = system: Brk-lipase: Bacillus sp. 42 thermostable organic solvent tolerant lipase (encoding nucleic acid SEQ ID NO: 15) fused to BrkA autotransporter, on the surface of …; experiment: Lipase activity, continuous spectrophotometric rate determination at 400 nm, Michaelis-Menten fit, Brk-lipase on minicell surface; details: 4-nitrophenyl-butyrate 0-5 mM, 37° C., pH 7.2; Cells/Well: 17,706,667; best-fit value
Description: as §1
For a bacterial surface display system named as BrkAutoDisplay based on the structure of autotransporter BrkA (Bordetella serum-resistance killing protein A) was used to host an exogenous gene encoding lipase. To construct a recombinant Brk-lipase expression vector, Brk autotransporter gene was first cloned into the pGEX-6P-1 plasmid. Using BamHI and EcoRI restriction sites, the lipase-encoding gene was ligated with the Brk autotransporter gene, as illustrated in FIG. 6A. […]
(§2) In order to further confirm presence of the functional lipase-fusion protein in both the elution fraction from the protein purification and the surface of the cell, a lipase activity assay was designed using the lipase substrate, 4-nitrophenyl-butyrate. […] The pathlength, 0.625 cm, was calculated from the known volume of the well (200 uL) and the well's surface area (0.32 cm^2).
(§3) For the enzymatic assay, required are the reaction buffer (100 mM Sodium Phosphate Buffer solution pH 7.2, 0.5% (v/v) Triton-X 100, 150 mM Sodium Chloride), the enzyme/cell solution in 1×PBS, and the substrate solution which is varying concentrations of 4-nitrophenyl-butyrate in acetonitrile. […] Vmax and Km were calculated using GraphPad Prism Michaelis-Menten fitting parameters. […]

[3] = system: InaK-lipase: Bacillus sp. 42 thermostable organic solvent tolerant lipase (encoding nucleic acid SEQ ID NO: 15) fused to Ice Nucleation Protein InaK, on the …; experiment: Lipase activity, continuous spectrophotometric rate determination at 400 nm, Michaelis-Menten fit, InaK-lipase on minicell surface; details: 4-nitrophenyl-butyrate 0-5 mM, 37° C., pH 7.2; Cells/Well: 107,840,000; best-fit value
Description: as §1
Another bacterial surface display protein, Ice Nucleation Protein K (InaK) was used for expressing recombinant lipase proteins fused to anchoring linker protein (motif) that direct the incorporated fusion protein on the surface of minicells. Like BrkAutoDisplay, polynucleotide encoding Inak transmembrane protein and the lipase-encoding gene were inserted into the pGEX-6P-1 vector for producing the bacterial surface display lipase protein as illustrated in FIG. 7A. […]
as §2
as §3, with “Activity was determined from a Michaelis-Menten fit of the” for “Vmax and Km were”, “rates resulting from varying the substrate concentration according to the Table 10.” for “using GraphPad Prism Michaelis-Menten fitting parameters.”

## CCCC(=O)Oc1ccc([N+](=O)[O-])cc1 [4-nitrophenyl-butyrate]
[1]
  Km: 180 µM
  Vmax: 0.08174 µM/s
[2]
  Km: 221 µM
  Vmax: 0.04453 µM/s
[3]
  Km: 302 µM
  Vmax: 0.06354 µM/s
